Source: patent US20080312301A1, “Substituted N-Benzo[D]Isoxazol-3-Yl-Amine Compounds as Inhibitors of Mglur5, Serotonin (5-Ht) and Noradrenaline Receptors, and Uses Thereof” (Gruenenthal GmbH, priority 2005, published 2008)

These molecules were tested against T1, NA transporter (Rattus norvegicus, UniProt Q63380) (assay: Noradrenaline (NA) uptake inhibition in rat brain synaptosomes (hypothalamus), [3H]-NA). Details: not given.
T1 construct: from tissue; host or cells: rat hypothalamus synaptosomes (P2 fraction)
T1 sequence (Q63380 1-617): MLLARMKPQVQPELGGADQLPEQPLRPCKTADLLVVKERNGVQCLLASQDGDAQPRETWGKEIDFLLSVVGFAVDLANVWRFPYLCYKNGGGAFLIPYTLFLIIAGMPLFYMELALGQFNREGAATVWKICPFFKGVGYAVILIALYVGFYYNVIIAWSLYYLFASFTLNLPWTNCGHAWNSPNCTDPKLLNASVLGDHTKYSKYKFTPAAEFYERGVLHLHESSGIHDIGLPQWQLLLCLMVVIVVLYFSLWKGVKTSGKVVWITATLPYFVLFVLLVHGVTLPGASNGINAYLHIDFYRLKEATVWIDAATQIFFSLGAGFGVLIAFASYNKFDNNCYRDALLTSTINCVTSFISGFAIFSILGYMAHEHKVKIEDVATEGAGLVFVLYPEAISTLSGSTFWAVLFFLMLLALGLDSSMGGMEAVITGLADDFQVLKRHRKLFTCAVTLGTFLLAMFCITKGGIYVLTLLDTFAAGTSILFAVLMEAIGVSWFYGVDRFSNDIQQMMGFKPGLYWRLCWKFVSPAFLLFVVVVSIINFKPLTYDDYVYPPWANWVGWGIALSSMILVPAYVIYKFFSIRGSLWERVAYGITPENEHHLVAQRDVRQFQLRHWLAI
Format: biochemical
Excerpt: I. Method for Determining the Noradrenaline and 5HT Uptake Inhibition:
For in vitro studies, synaptosomes were freshly isolated from rat brain areas as described in the publication “The isolation of nerve endings from brain” by E. G. Gray and V. P. Whittaker, J. Anatomy 96, pages 79-88, 1962. The corresponding literature description is introduced hereby as reference and forms part of the disclosure.
The tissue (hypothalamus for determining the noradrenaline uptake inhibition and medulla and pons for determining the 5HT uptake inhibition) was homogenized in ice-cold 0.32 M sucrose (100 mg of tissue/1 ml) in a glass homogenizer with Teflon pestle using five full up and down strokes at 840 revolutions/minute. The homogenate was centrifuged at 1000 g and at 4° C. for 10 minutes. After subsequent centrifugation at 17 000 g for 55 minutes, the synaptosomes (P2 fraction) are obtained and were resuspended in 0.32 M […] (0.5 ml/100 mg of the original weight).
The respective uptake was measured in a 96-well microtiter plate. The volume was 250 μl and incubation took place at room temperature (approx. 20-25° C.) under an O2 atmosphere.
The incubation time was 7.5 minutes for [^3H]-NA and 5 minutes for [^3H]-5-HT. The 96 samples were then filtered through a Unifilter GF/B® microtiter plate (Packard) and washed with […] of incubated buffer using a “Brabdel MPXRI-96T Cell Harvester”. The Unifilter GF/B plate was dried at 55° C. for 1 h. The plate was then sealed with a Back Seal® (Packard) and 35 μl of scintillation fluid were added per well (Ultima Gold®, Packard). After sealing with a top Seal® (Packard), the radioactivity was determined, after equilibrium had been reached (about 5 h), in a “Trilux 1450 Microbeta” (Wallac).
The following characteristic data were found for the NA transporter:
The amount of protein employed in the above determination corresponded to the value disclosed in the literature, as described for example in “Protein measurement with the folin phenol reagent”, Lowry et al., J. Biol. Chem., 193, 265-275, 1951. A detailed description of the method can also be found in the literature, for example from M. Ch. Frink, H.-H. Hennies, W. Engelberger, M. Haurand and B. Wilffert (1996) Arzneim.-Forsch./Drug Res. 46 (III), 11, 1029-1036. The corresponding literature descriptions are hereby introduced as reference and form part of the disclosure.

Row | NA uptake inhibition [%] conc. 10 μM [%] | Structure (SMILES)
1 | 62 | O=C(Nc1noc2ccc(Br)cc12)C1CC1 [Example 8, cyclopropane(5-bromobenzo[d]isoxazol-3-yl)carboxamide]
2 | 71 | Nc1cccc2onc(NC(=O)c3cccc4ccccc34)c12 [Example 11, naphthalene-1-(4-aminobenzo[d]isoxazol-3-yl)carboxamide]
3 | 60 | O=C(Nc1noc2cccc(F)c12)c1cc2ccccc2s1 [Example 12, benzo[b]thiophene-2-(4-fluorobenzo[d]isoxazol-3-yl)carboxamide]
4 | 61 | O=C(Nc1noc2cc(Cl)ccc12)c1ccc2ccccc2c1 [Example 41, naphthalene-2-(6-chlorobenzo[d]isoxazol-3-yl)carboxamide]
5 | 66 | O=C(Nc1noc2ccc(Br)cc12)c1ccco1 [Example 50, furan-2-(5-bromobenzo[d]isoxazol-3-yl)carboxamide]

Same assay, conditions: conc. 10 μM

Row | inhibition at 10 µM [%] | Structure (SMILES)
6 | 63 | COc1cccc2onc(NC(=O)C(c3ccccc3)c3ccccc3)c12 [Example 7, N-(4-methoxybenzo[d]isoxazol-3-yl)-2,2-diphenylacetamide]
7 | 67 | O=C(Nc1noc2cc(F)ccc12)c1cc(Cl)cc(Cl)c1 [Example 9, 3,5-dichloro-N-(6-fluorobenzo[d]isoxazol-3-yl)benzamide]
8 | 66 | Nc1cccc2onc(NC(=O)c3ccc([N+](=O)[O-])cc3)c12 [Example 10, N-(4-aminobenzo[d]isoxazol-3-yl)-4-nitrobenzamide]
9 | 61 | O=C(Nc1noc2cc(Cl)ccc12)c1ccc(I)cc1 [Example 40, N-(6-chlorobenzo[d]isoxazol-3-yl)-4-iodobenzamide]
10 | 64 | O=C(Nc1noc2cc(Cl)ccc12)c1ccc(F)c(F)c1 [Example 42, N-(6-chlorobenzo[d]isoxazol-3-yl)-3,4-difluorobenzamide]
11 | 66 | O=C(Nc1noc2cc(Br)ccc12)c1ccc(F)cc1C(F)(F)F [Example 43, N-(6-bromobenzo[d]isoxazol-3-yl)-4-fluoro-2-trifluoromethylbenzamide]
12 | 61 | O=C(Nc1noc2cc(Br)ccc12)c1cc(F)c(Cl)cc1Cl [Example 44, 2,4-dichloro-N-(6-bromobenzo[d]isoxazol-3-yl)-5-fluorobenzamide]
13 | 64 | O=C(Nc1noc2cc(Br)ccc12)c1ccc(C(F)(F)F)c(F)c1 [Example 45, N-(6-bromobenzo[d]isoxazol-3-yl)-3-fluoro-4-trifluoromethylbenzamide]
14 | 65 | O=C(Nc1noc2cc(Br)ccc12)c1cc(F)cc(C(F)(F)F)c1 [Example 46, N-(6-bromobenzo[d]isoxazol-3-yl)-3-fluoro-5-trifluoromethylbenzamide]
15 | 66 | O=C(Nc1noc2cc(Br)ccc12)c1ccc(F)c(F)c1F [Example 47, N-(6-bromobenzo[d]isoxazol-3-yl)-2,3,4-trifluorobenzamide]
16 | 61 | CCCc1ccc(C(=O)Nc2noc3cc(Br)ccc23)cc1 [Example 48, N-(6-bromobenzo[d]isoxazol-3-yl)-4-propylbenzamide]
17 | 71 | O=C(Nc1noc2c(F)ccc(F)c12)c1ccccc1C(F)(F)F [Example 51, 7-fluoro-N-(4-fluorobenzo[d]isoxazol-3-yl)-2-trifluoromethylbenzamide]
18 | 70 | O=C(Nc1noc2c(F)cccc12)c1cc(F)c(Cl)cc1Cl [Example 52, 2,4-dichloro-5-fluoro-N-(7-fluorobenzo[d]isoxazol-3-yl)benzamide]
19 | 69 | O=C(Nc1noc2c(F)cccc12)c1ccc(C(F)(F)F)c(F)c1 [Example 53, 3-fluoro-N-(7-fluorobenzo[d]isoxazol-3-yl)-4-trifluoromethylbenzamide]
20 | 63 | O=C(Nc1noc2c(F)cccc12)c1ccc(F)c(F)c1F [Example 54, 2,3,4-trifluoro-N-(7-fluorobenzo[d]isoxazol-3-yl)benzamide]
21 | 69 | O=C(Nc1noc2c(F)cccc12)c1ccc(I)cc1 [Example 55, N-(7-fluorobenzo[d]isoxazol-3-yl)-4-iodobenzamide]

Each molecule was assayed against T2, mGluR5 receptor (Sus scrofa, UniProt I3LUI7) (assay: Affinity for the mGluR5 receptor: displacement of 3[H]-MPEP binding in pig brain homogenate). Details: 10 μM compound, 5 nM 3[H]-MPEP.
T2 construct: 450 μg of protein from brain homogenate are incubated with 5 nM^3[H]-MPEP; from tissue; host or cells: pig brain hemispheres without medulla, cerebellum and pons
T2 sequence (I3LUI7 19-1212): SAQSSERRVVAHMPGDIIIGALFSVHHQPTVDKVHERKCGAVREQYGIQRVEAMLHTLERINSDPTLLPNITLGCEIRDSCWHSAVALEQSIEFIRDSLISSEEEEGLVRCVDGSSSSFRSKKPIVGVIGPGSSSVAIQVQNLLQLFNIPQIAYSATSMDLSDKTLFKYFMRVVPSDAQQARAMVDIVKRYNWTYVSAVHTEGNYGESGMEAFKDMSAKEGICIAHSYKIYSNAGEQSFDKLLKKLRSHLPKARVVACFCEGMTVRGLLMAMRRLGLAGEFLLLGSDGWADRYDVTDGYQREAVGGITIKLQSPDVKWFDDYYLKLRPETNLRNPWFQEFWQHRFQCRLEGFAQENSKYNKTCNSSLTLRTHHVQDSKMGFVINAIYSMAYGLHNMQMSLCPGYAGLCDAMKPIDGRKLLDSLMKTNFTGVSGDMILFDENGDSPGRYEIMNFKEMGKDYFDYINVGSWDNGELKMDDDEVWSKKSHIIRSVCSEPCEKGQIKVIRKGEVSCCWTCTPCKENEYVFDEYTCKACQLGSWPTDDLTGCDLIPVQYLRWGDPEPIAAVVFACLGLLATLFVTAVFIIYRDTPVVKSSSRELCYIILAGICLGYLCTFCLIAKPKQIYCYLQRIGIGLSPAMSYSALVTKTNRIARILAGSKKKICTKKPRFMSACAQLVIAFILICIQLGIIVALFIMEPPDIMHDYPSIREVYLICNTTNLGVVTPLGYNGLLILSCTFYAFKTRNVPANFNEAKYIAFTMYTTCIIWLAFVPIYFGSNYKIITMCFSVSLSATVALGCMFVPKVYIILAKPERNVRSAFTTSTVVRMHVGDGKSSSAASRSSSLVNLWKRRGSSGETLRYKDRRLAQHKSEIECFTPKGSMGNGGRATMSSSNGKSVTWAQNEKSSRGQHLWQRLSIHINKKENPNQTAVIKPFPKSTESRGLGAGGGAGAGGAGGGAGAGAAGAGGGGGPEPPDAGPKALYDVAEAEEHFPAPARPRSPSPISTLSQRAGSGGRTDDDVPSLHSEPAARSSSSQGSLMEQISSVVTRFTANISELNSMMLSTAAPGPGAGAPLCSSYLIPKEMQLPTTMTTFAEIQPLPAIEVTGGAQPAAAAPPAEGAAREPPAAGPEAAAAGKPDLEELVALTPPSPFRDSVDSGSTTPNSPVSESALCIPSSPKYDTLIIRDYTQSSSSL
Protocol: II. Method for Determining the Affinity for the mGluR5 Receptor
In each case 450 μg of protein from brain homogenate are incubated with 5 nM^3[H]-MPEP (Tocris, order No. R1212) (MPEP=2-methyl-6-[…]) and the compounds to be investigated (10 μM in the assay) in buffer (as above) in 250 μl incubation mixtures in 96-well microtiter plates at room temperature for 60 min.
The filter plates were then dried at 55° C. for 60 min.

Row | inhibition at 10 µM [%] | mGluR5 receptor inhibition of the 3[H]-MPEP binding in % (10 μM) [%] | Structure (SMILES)
22 | 54 |  | CCC(C)C(=O)Nc1noc2cccc(OC)c12 (centres unmarked) [Example 160, N-(4-methoxybenzo[d]isoxazol-3-yl)-2-methylbutyramide]
23 | 38.5 |  | CCCC(C)C(=O)Nc1noc2cccc(OC)c12 (centres unmarked) [Example 161, N-(4-methoxybenzo[d]isoxazol-3-yl)-2-methylpentanamide]
24 | 36 |  | CCC(C)C(=O)Nc1noc2cccc(OCC(F)(F)F)c12 (centres unmarked) [Example 163, 2-methyl-N-[4-(2,2,2-trifluoroethoxy)benzo[d]isoxazol-3-yl]butyramide]
25 | 33.4 |  | CC(C)(C)CC(=O)Nc1noc2cccc(OCC(F)(F)F)c12 [Example 164, 3,3-dimethyl-N-[4-(2,2,2-trifluoroethoxy)benzo[d]isoxazol-3-yl]butyramide]
26 |  | 32.39 | Cc1cc(C(=O)Nc2noc3cccc(OCC(F)(F)F)c23)c(C)o1 [Example 166, 2,5-dimethylfuran-3-[4-(2,2,2-trifluoroethoxy)benzo[d]isoxazol-3-yl]carboxamide]
27 | 39.7 |  | Cc1ccc(COc2cccc3onc(NC(=O)c4cccc([N+](=O)[O-])c4)c23)cc1 [Example 167, N-[4-(4-methylbenzyloxy)benzo[d]isoxazol-3-yl]-3-nitrobenzamide]
28 | 32.2 |  | CCCc1ccc(C(=O)Nc2noc3cccc(OCc4ccc(C)cc4)c23)cc1 [Example 168, N-[4-(4-methylbenzyloxy)benzo[d]isoxazol-3-yl]-4-propylbenzamide]
29 | 36.8 |  | CN(C)c1cccc2onc(NC(=O)c3cc(F)cc(C(F)(F)F)c3)c12 [Example 169, N-(4-dimethylaminobenzo[d]isoxazol-3-yl)-3-fluoro-5-trifluoromethylbenzamide]
30 | 38 |  | CN(C)c1cccc2onc(NC(=O)c3ccc(Cl)c(Cl)c3)c12 [Example 170, 3,4-dichloro-N-(4-dimethylaminobenzo[d]isoxazol-3-yl)benzamide]
31 | 42.3 |  | CN(C)c1cccc2onc(NC(=O)c3cccc([N+](=O)[O-])c3)c12 [Example 171, N-(4-dimethylaminobenzo[d]isoxazol-3-yl)-3-nitrobenzamide]
32 |  | 51.40 | CN(C)c1cccc2onc(NC(=O)C34CC5CC(CC(C5)C3)C4)c12 [Example 172, adamantane-1-(4-dimethylaminobenzo[d]isoxazol-3-yl)carboxamide]
33 |  | 43.55 | CN(C)c1cccc2onc(NC(=O)c3cc4ccccc4s3)c12 [Example 173, benzo[b]thiophene-2-(4-dimethylaminobenzo[d]isoxazol-3-yl)carboxamide]
34 | 36.1 |  | Nc1c(F)c(F)c2c(NC(=O)c3c(F)cccc3F)noc2c1F [Example 176, N-(6-amino-4,5,7-trifluorobenzo[d]isoxazol-3-yl)-2,6-difluorobenzamide]
35 | 30.8 |  | Nc1c(F)c(F)c2c(NC(=O)c3ccc(F)cc3F)noc2c1F [Example 177, N-(6-amino-4,5,7-trifluorobenzo[d]isoxazol-3-yl)-2,4-difluorobenzamide]
